What was measured:
[1] = tested on: inflammatory cytokine gene expression (MIP2, TNFα, IL-6) in IEC-6 rat intestinal epithelial cells; assay: Inflammatory cytokine gene expression (qPCR) in IEC-6 cells with and without LPS challenge (Example 6); format: cell-based; conditions: LPS alone, 1 hr at 37° C.
[2] = tested on: avian pathogenic Escherichia coli (APEC); assay: APEC levels in GI tract of commercial broilers at 12-15 days, with and without in ovo gentamycin (Example 2); format: in vivo; conditions: GI tract of broilers at 12-15 days of age
[3] = tested on: avian pathogenic Escherichia coli (APEC); format: in vivo; conditions: 3 days of age; ½ dose in ovo gentamycin; all birds treated with the product

| Substance | increase in gene expression of all three inflammatory cytokines (MIP2, TNFα, IL-6) relative to unstimulated control cells [1] | birds with detectable levels of APEC [2] | average APEC level ([2]; ten birds per treatment) | APEC levels, gentamycin-treated vs untreated birds [3] |
| --- | --- | --- | --- | --- |
| Lipopolysaccharide | > 50 fold | – | – | – |
| gentamycin | – | 2 out of 10 birds | 6.6×10^1 CFU/g | not statistically different |

— patent US11298383B2, “Lactobacillus and bacillus based direct fed microbial treatment for poultry and method of use” (priority 2016, dated 2022)
